We go through 1 substance from patent publication US20220362279A1, “USE OF OLIGONUCLEOTIDES FOR THE TREATMENT AND PREVENTION OF PAIN” (CONSEJO NACIONAL DE INVESTIGACIONES CIENTÍFICAS Y TÉCNICAS, priority 2018, published 2022).

“Also recorded” adds a separate entry of the source. Strand notation (5' to 3'): a small letter for the sugar, then the base; units joined by * are phosphorothioate-linked, units joined directly phosphodiester-linked; [ ] holds rarer units or linkages, { } end groups; capitals alone tell only the bases. d = 2'-deoxy (DNA)

Holding throughout (type): in vivo, rat
One data set has as its system naïve rats. As to the kind of experiment: Hind paw mechanical withdrawal threshold in naïve rats. Conditions: 20 mg/kg daily x5; observed up to 22 days; vs saline-treated naïve rats. As to the method: Naïve (uninjured and untreated; n=16), CFA injured untreated (n=10), and vehicle-treated CFA (n=9) or SNI rats (n=10) were used as controls. Eight naïve rats remained untreated, four were vehicle-treated, and four received a daily dose of 20 mg/kg IMT504 for five consecutive days. Untreated CFA rats received an intradermal hind paw injection of CFA and no further treatment. Vehicle-treated CFA rats received five daily subcutaneous injections of saline (200 μl), starting seven days after injury. Vehicle-treated SNI rats received one single dose of saline (200 ul), starting seven days after injury.
For mechanical allodynia assessment, a set of von Frey filaments (Stoelting, Ill., USA) and the modified up-down method of Dixon were used, as described by Chaplan et al. (Chaplan S R, et, al., (1994) J. Neurosci Methods 53: 55-632) to establish the 50% withdrawal threshold. A withdrawal threshold of 6 g or less was considered an allodynic response.

The next data set relates to rats with SNI. As to the kind of experiment: Cold allodynia in rats with spared nerve injury (SNI). As to conditions: single dose of 6 mg/kg seven days after SNI, s.c. The source says: In twenty-six rats anesthetized with Isoflurane (5% induction, 2.5% maintenance, 0.8 L/min O2 flow rate; Piramal Healthcare, UK), the right sciatic nerve and its three distal branches were exposed by blunt dissection, and the tibial and common peronneal branches completely sectioned and ligated to prevent regeneration. The third branch, the sural nerve, was left intact. The animals received one single injection of ketoprofen for post-surgical pain control and were left to recover from anesthesia in a warm and quiet environment before relocating them in their corresponding cages.
Rats were administered subcutaneously using the LT protocol (FIG. 4A) and a single dose of 6 mg/kg of IMT504. This was followed by pain-like behavior testing for up to six weeks after SNI.
Naïve (uninjured and untreated; n=16), CFA injured untreated (n=10), and vehicle-treated CFA (n=9) or SNI rats (n=10) were used as controls. Eight naïve rats remained untreated, four were vehicle-treated, and four received a daily dose of 20 mg/kg IMT504 for five consecutive days. Untreated CFA rats received an intradermal hind paw injection of CFA and no further treatment. […]
For cold allodynia assessment, the reaction to the application of a drop of acetone onto the plantar surface of the hind paw was used. Both frequency of withdrawal and cold score (pain-like behavior intensity) were measured.

Data set [1] deals with rats with postsurgical pain (plantar incision). As to the kind of experiment: Opioid sparing: morphine in VEH- or IMT504-pre-treated rats with plantar incision, mechanical withdrawal threshold. As to the method: In all experiments, the oligodeoxynucleotide (ODN) IMT504, with sequence 5′-[…]-3′ (SEQ ID No 1) was used. The HPLC-grade phosphorothioate ODN (Biosynthesis Inc., Lewisville, Tex., USA) was suspended in sterile saline solution (VEH, 0.9% NaCl; 20 mg/ml; storage concentration) and assayed for LPS contamination. Working concentration doses (6 mg/kg) were obtained by additional dissolving in sterile VEH. The ODN was administered subcutaneously, at a final volume of 200-300 μl, depending on animal weight.
Experiments addressing the opioid sparing effects of IMT504 included the subcutaneous (s.c.) injection of morphine hydrochloride trihydrate (Neocalmans, 10 mg/ml, Soubeiran Chobet, Buenos Aires, Argentina) at three different concentrations (1, 3 or 10 mg/kg, dissolved in sterile distilled water).
The rat hind paw plantar incision model of postoperative pain was used as previously described [Brennan, T. J., E. P. Vandermeulen, and G. F. Gebhart, Characterization of a rat model of incisional pain. Pain, 1996. 64(3): p. 493-501. Briefly, rats were anesthetized using isoflurane (5% induction, 2.5% maintenance, 0.8 l/min O2 flow rate; Piramal Healthcare, UK) and the plantar aspect of the right hind paw was disinfected with povidone iodine. A 1.0-cm longitudinal incision was made 0.5 cm from the end of the heel. The underlying flexor muscle was also incised longitudinally, allowing the muscle origin and insertion to remain intact. After hemostasis by gentle pressure, the skin was closed with sutures of 5-0 nylon.
Rats were divided into injured rats receiving IMT504 (6 mg/kg, dissolved in VEH) or VEH alone, 48h and 24 h prior to surgery. These groups were further subdivided into: 1) Rats followed during 3 days after the injury (n=6 per group), for assessment of pain-like behavior after the co-administration of morphine dissolved in injectable water (vehicle) at different doses, 6 and 24 h after injury; 2) Rats followed during 3 days after the injury (n=6 per group), for assessment of pain-like behavior after the co-administration of injectable water (vehicle) alone, 6 and 24 h after injury; 3) Rats followed during 21 days (n=8), for analysis of the administration of naloxone, 3 days after injury.
Mechanical withdrawal thresholds were assessed by using von Frey nylon monofilaments of different bending forces (1.4, 2, 6, 8, 10, 15 and 26 g; Stoelting Inc., Wooddale, USA) and the modified up-down method of Dixon, as described by Chaplan and cols. (Chaplan, S. R., et al., Quantitative assessment of tactile allodynia in the rat paw. J Neurosci Methods, 1994. 53(1): p. 55-63) , to establish the 50% withdrawal threshold. Results were obtained using the formula: 50% g threshold=[…], where Xf=value (in log units) of the final von Frey hair used; k=tabular value for the pattern of positive/negative responses; and […] difference (in log units) between stimuli. Mechanical withdrawal thresholds were tested 48 h before surgery (basal responses), and 6 h, 1, 3, 7, 14 and 21 days after injury.
A dose-response experiment to evaluate the effect of the s.c. administration of morphine at different doses (10, 3 and 1 mg/kg), 6 h or 1 day after injury, in VEH- or IMT504-treated rats (time-points were chosen based on the fact that a certain degree of mechanical withdrawal threshold alterations was still present in IMT504-treated rats was done, which allowed to test if within this therapeutic window, it was possible to fully revert pain-like behavior using smaller morphine doses). […]

Regarding “IMT504: synthetic phosphorothioate oligodeoxynucleotide with sequence 5′-TCATCATTTTGTCATTTTGTCATT-3′ (SEQ ID No 1) (DNA dT*dC*dA*dT*dC*dA*dT*dT*dT*dT*dG*dT*dC*dA*dT*dT*dT*dT*dG*dT*dC*dA*dT*dT)”, the “hind paw mechanical withdrawal threshold in naïve rats” value in the data set on naïve rats was “did not shown changes; also recorded: did not show any evident changes”. Moreover, in the data set with rats with SNI, the cold score result was “reduced to basal levels ten days after injury and onwards”; the “cold withdrawal frequency reduced to basal levels” value is “three weeks after injury”. Moreover, the “anti-allodynic effect of pre-emptive IMT504 and 3 mg/kg morphine” value in data set [1] (6 h and 1 day after injury challenges) is reported as “anti-allodynic effects directly comparable to those described for the 10 mg/kg dose in VEH rats”. Moreover, in data set [1] (IMT504-pre-treated rats (6 mg/kg, 48 h and 24 h before surgery), particularly at morphine 3 and 10 mg/kg), the “time post injection of morphine with withdrawal thresholds remaining significantly higher” value is reported as at least 120 min. The “withdrawal threshold once the effect of the opioid had worn out (240 min)” value in data set [1] (IMT504 rats receiving 10 mg/kg morphine, 1 day after injury, vs VEH counterparts) is listed as “retained a significantly higher withdrawal threshold than their VEH counterparts”. The “reduction in morphine concentration to achieve the same effect as in VEH-treated injured rats receiving the highest dose” value in data set [1] (area under the curve analyses (FIG. 16, FIG. 17)) was 3 fold.
